The values below come from US4772475A, “Controlled-release multiple units pharmaceutical formulation” (Yamanouchi Pharmaceutical Co., Ltd., priority 1985, dated 1988).

Each structure is given as a SMILES string.

One data set can be described thus: Solubility in water. It is filed as physicochemical.
In a further data set the test system is α. As to conditions: cited from earlier work.

For `CCOc1ccccc1OCCNC(C)Cc1ccc(OC)c(S(N)(=O)=O)c1.Cl` (centres unmarked) [YM-12617, 5-{2-[2-(o-ethoxyphenoxy)ethylamino]propyl}-2-methoxybenzenesulfonamide hydrochloride], the solubility – broadly, how much of the substance goes into solution per volume – in “Solubility in water” lay within 3000 to 5000 µg/mL. For the same molecule, the α-blocking action entry in the data set on α is reported as “shows an α-blocking action”.
